Laboratory results from paper PMC3933693, “Novel Inhibitors of Mitochondrial sn-Glycerol 3-phosphate Dehydrogenase” (PLoS ONE, 2014).

Columns and labels:
mGPDH = biological target: T1, mGPDH (Rattus norvegicus, UniProt P35571); experiment: Superoxide/H2O2 production by mGPDH in isolated skeletal muscle mitochondria (Amplex UltraRed); assay type: biochemical; settings: for mGPDH (% change from DMSO): primary screen, ∼2.5 µM, average of duplicates, 16.7 mM glycerol phosphate, no added calcium
T1 construct: Activity of mGPDH in frozen-thawed skeletal muscle mitochondria was measured; from tissue; host or cells: skeletal muscle mitochondria
T1 sequence (P35571 43-727): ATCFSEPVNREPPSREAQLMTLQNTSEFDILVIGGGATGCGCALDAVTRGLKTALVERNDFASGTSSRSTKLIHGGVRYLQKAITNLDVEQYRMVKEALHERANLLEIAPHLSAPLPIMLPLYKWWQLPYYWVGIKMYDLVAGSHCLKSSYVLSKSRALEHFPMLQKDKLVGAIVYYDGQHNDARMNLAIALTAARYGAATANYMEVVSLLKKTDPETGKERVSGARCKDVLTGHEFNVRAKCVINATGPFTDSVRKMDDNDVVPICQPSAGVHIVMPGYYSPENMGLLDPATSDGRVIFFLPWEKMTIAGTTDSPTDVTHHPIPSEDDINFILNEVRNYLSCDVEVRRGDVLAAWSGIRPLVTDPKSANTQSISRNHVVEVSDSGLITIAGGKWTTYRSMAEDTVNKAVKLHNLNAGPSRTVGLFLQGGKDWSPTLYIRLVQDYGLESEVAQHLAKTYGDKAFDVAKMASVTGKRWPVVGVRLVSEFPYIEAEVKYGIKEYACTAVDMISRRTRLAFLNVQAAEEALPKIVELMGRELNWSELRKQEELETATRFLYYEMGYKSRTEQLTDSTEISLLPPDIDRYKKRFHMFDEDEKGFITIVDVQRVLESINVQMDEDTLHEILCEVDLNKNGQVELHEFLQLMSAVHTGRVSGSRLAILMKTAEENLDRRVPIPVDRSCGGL

[1] = biological target: T2, flavin site of complex II (site IIF) (Rattus norvegicus, UniProt Q920L2); experiment: Site-specific H2O2 production from site IIF in skeletal muscle mitochondria; assay type: biochemical; settings: primary screen, ∼2.5 µM, average of duplicates; palmitoylcarnitine
T2 construct: from tissue; host or cells: skeletal muscle mitochondria
Method: (§1) Superoxide was measured as H2O2 after dismutation by endogenous or exogenous superoxide dismutase. Rates of total superoxide/H2O2 production were measured fluorimetrically using Amplex UltraRed in the presence of exogenous superoxide dismutase and horseradish peroxidase in a Varian Cary Eclipse fluorimeter as previously described. Rates of production from specific sites were determined as previously described using the following eight conditions: flavin mononucleotide site of complex I (site IF) plus matrix NAD-linked dehydrogenases (collectively "site IF/DH") with 5 mM glutamate, 5 mM malate, and 4 µM rotenone; ubiquinone-binding site of complex I (site IQ) with either 0.5 or 5 mM succinate; flavin site of complex II (site IIF) with either 15 µM palmitoylcarnitine, 2.5 µM antimycin A, and 2 µM myxothiazol or 0.5 mM succinate, 4 µM rotenone, 2.5 µM antimycin A, and 2 µM myxothiazol, [31]; mGPDH with 1.7 mM glycerol phosphate, 4 µM rotenone, 2.5 µM antimycin A, 2 µM myxothiazol, 1 mM malonate, and 250 nM free calcium; outer ubiquinone-binding site of complex III (site IIIQo) with either 0.5 or 5 mM succinate, 4 µM rotenone and 2.5 µM antimycin A [32]. Candidate small-molecule inhibitors were added prior to the start of measurements and H2O2 calibration curves were performed in the presence of tested compounds.
(§2) 3,200 compounds were tested initially at 2.5 µM (0.025% DMSO final) in duplicate on different plates against a panel of five distinct assays of site-specific superoxide/H2O2 production as described in the previous section with minor changes. […] Endpoint fluorescence was measured on a Perkin Elmer Victor V3 fluorescent plate reader. The fluorescence intensity of each well was normalized as % change from the average of eight DMSO controls on the same plate. Duplicate wells of each of four modulators of mitochondrial metabolism known to inhibit specific sites of superoxide/H2O2 production were included on each plate as positive controls and the resulting fluorescence levels set as −100% change from DMSO controls. Known inhibitors included 20 mM aspartate (for site IF/DH), 1 µM FCCP (for site IQ), 10 mM malonate (for site IIF), and 2 µM myxothiazol (for site IIIQo). The background fluorescence of the FCCP wells in the site IQ assay was used to normalize mGPDH plates run in parallel. To minimize position-dependent effects across each assay plate, Tukey’s two-way median polish was applied to fluorescence values after initial normalization, [36]. Tukey’s polish is an iterative subtraction of the median row and column values from each well’s given row or column. The procedure is repeated until sequential medians for each row and column are zero and positional gradients in fluorescence are eliminated.

[2] = biological target: T3, outer ubiquinone-binding site of complex III (site IIIQo) (Rattus norvegicus, UniProt P00159+P20788); experiment: Site-specific H2O2 production from site IIIQo in skeletal muscle mitochondria; assay type: biochemical; settings: primary screen, ∼2.5 µM, average of duplicates; 5 mM succinate
T3 construct: from tissue; host or cells: skeletal muscle mitochondria
Method: as §1, §2

[3] = test system: flavin mononucleotide site of complex I (site IF) plus matrix NAD-linked dehydrogenases (site IF/DH); experiment: Site-specific H2O2 production from site IF/DH in skeletal muscle mitochondria; assay type: biochemical, rat; settings: primary screen, ∼2.5 µM, average of duplicates
Method: as §1, §2

[4] = test system: ubiquinone-binding site of complex I (site IQ); experiment: Site-specific H2O2 production from site IQ in skeletal muscle mitochondria; assay type: biochemical, rat; settings: primary screen, ∼2.5 µM, average of duplicates; 5 mM succinate;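 note: H2O2 from superoxide detected by Amplex UltraRed fluorescence with added superoxide dismutase and horseradish peroxidase, endpoint read 30–40 min after substrate addition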
[5] = test system: skeletal muscle mitochondria; experiment: Mitochondrial membrane potential (ΔΨm, TMRM) powered by glutamate plus malate; assay type: biochemical, rat; settings: primary screen, ∼2.5 µM, average of duplicates; glutamate and malate

T2 sequence (Q920L2 35-656): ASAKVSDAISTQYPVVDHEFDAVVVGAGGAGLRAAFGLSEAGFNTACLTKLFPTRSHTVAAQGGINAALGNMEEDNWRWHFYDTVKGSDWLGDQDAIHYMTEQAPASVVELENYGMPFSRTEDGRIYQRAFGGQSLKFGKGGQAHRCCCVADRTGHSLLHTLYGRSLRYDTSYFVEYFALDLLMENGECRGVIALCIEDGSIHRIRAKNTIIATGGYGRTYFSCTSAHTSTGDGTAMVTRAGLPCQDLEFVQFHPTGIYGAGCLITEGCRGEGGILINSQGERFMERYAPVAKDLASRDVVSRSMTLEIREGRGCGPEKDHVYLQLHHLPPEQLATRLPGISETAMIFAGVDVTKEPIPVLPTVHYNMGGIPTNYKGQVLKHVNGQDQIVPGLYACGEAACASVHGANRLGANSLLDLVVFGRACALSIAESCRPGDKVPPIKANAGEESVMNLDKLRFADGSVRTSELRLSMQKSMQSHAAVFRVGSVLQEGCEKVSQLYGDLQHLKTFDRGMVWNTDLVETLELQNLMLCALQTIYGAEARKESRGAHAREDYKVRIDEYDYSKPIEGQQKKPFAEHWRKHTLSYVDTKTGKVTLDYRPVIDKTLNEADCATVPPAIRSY
T2 sequence (P21913 31-282 partner): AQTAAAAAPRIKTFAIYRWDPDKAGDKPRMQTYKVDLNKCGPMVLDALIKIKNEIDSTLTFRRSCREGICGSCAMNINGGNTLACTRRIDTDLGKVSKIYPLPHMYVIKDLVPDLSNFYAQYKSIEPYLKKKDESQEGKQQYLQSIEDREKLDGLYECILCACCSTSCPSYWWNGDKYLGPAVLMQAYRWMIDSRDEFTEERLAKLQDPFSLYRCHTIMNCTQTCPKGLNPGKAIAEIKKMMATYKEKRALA
T2 sequence (Q641Z9 30-169 partner limits assumed): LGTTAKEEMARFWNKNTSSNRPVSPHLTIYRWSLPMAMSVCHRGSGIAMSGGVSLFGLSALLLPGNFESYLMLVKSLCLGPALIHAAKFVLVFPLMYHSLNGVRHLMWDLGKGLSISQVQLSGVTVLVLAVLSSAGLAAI
T2 sequence (Q6PCT8 57-159 partner): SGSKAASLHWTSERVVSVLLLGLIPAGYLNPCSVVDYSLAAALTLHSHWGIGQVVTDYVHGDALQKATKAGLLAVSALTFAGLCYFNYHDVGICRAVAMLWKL

Compound | effect on the rate of H2O2 production from mGPDH (mGPDH; compared with glyceraldehyde 3-phosphate, Fig. 2A) | IIF (% change from DMSO) [1] [%] | IIIQo (% change from DMSO) [2] [%] | mGPDH (% change from DMSO) (mGPDH) [%] | IF/DH (% change from DMSO) [3] [%] | IQ (% change from DMSO) [4] [%] | ΔΨm (% change from DMSO) [5] [%]
O=C(CO)COP(=O)(O)O [DHAP, dihydroxyacetone phosphate, reference compound] | less effective |  |  |  |  |  | 
COc1ccc(NCc2ccccc2)cc1 [compound 5107549] |  | -44.6 | -6.9 | -28.0 | -41.3 | -27.5 | 0.3
CC(C)CSC(CC(=O)O)C(=O)O (stereo not shown) [compound 5152843] |  | -7.8 | -15.7 | -10.7 | -19.0 | -6.2 | -0.119
O=C1N=C(c2ccccc2)C(c2ccccc2)N1 (stereo not shown) [compound 5162292] |  | -24.8 | -23.8 | -13.1 | -7.5 | -4.2 | -2.7
COc1ccc(NCCNc2ccc(OC)cc2)cc1 [compound 5174308] |  | -50.8 | -30.1 | -37.5 | -73.0 | -49.0 | 0.352
Cc1ccc(NC(=O)c2ccc(C(C)(C)C)cc2)cc1 [compound 5210384] |  | -0.156 | 11.8 | -11.4 | 6.3 | 1.4 | -1.1
COc1ccc(O)c(CN2CCC(N3CCCCC3)CC2)c1 [compound 5410291] |  |  | -19.0 | -18.0 | -15.5 | -18.2 | -0.0836
COc1cc(CN2CCOCC2)ccc1O [compound 5423875] |  |  | -15.0 | -11.3 | -12.7 | -20.0 | 0.5
CCN1CCN(C/C=C/c2ccc(N(C)C)cc2)CC1 [compound 5424907] |  |  | -5.7 | -13.4 | -6.5 | -2.9 | 0.00666

Second part, led by results:

effect on the rate of H2O2 production from mGPDH (mGPDH; compared with glyceraldehyde 3-phosphate, Fig. 2A) | IIF (% change from DMSO) [1] [%] | IIIQo (% change from DMSO) [2] [%] | mGPDH (% change from DMSO) (mGPDH) [%] | Compound | IF/DH (% change from DMSO) [3] [%] | IQ (% change from DMSO) [4] [%] | ΔΨm (% change from DMSO) [5] [%]
 | -62.7 | -48.5 | -37.3 | Nc1cc(S(=O)(=O)c2ccc(O)c(N)c2)ccc1O [compound 5105145] | -62.0 | -49.7 | -1.2
 | -58.5 | -48.1 | -32.1 | NC(=O)Cc1c[nH]c2cccc(O)c12 [compound 5106694] | -39.7 | -49.2 | 0.127
 | -42.5 | -35.4 | -16.2 | O=C1c2ccccc2C(=O)N1CCc1c[nH]c2ccc(O)cc12 [compound 5106791] | -33.6 | -44.7 | 0.466
 | -18.1 | 46.2 | -19.8 | O=[N+]([O-])c1ccc2[nH]c(-c3ccccc3)cc2c1 [compound 5107950] | -58.4 | -70.5 | -14.4
 | -5.7 | -6.2 | -10.0 | CCCCc1c(C(=O)O)cc(C)cc1C(=O)O [compound 5119061] | -13.1 | -6.2 | 0.737
 | -106.6 | -73.9 | -72.6 | Nc1ccc(-c2nc3ccc(N)cc3[nH]2)cc1 [compound 5137121] | -89.7 | -61.6 | 1.1
 | -47.6 | -42.6 | -23.5 | O=S(=O)(Nc1ccc(O)c(Br)c1)c1ccc(Cl)cc1 [compound 5158529] | -54.3 | -50.5 | -0.4
 | -14.5 | 9.1 | -16.1 | Nc1ccccc1S(=O)(=O)Nc1cccc2cccnc12 [compound 5175136] | -42.5 | -18.9 | 0.113
 | -10.7 | -3.2 | -10.8 | Nc1cc(C(=O)O)c(N)cc1C(=O)O [compound 5180162] | -5.6 | -6.3 | -0.24
 | -39.7 | -32.7 | -31.6 | O=C(Cc1ccccc1)Nc1cc(C(=O)O)c(NC(=O)Cc2ccccc2)cc1C(=O)O [compound 5181020] | -40.9 | -35.6 | 0.05
 | -1.2 | -9.7 | -10.7 | CC(=O)N(C)c1ccc(NC(=O)c2ccc(-c3ccccc3)cc2)cc1 [compound 5191683] | -3.4 | -6.3 | 0.5
 | -110.1 | -41.2 | -68.8 | CN(C)c1nc2ccc(O)cc2s1 [compound 5195231] | -166.4 | -66.7 | 0.4
 | -17.8 | 4.3 | -17.8 | CC(C)c1nnc(NC(=O)c2cccc([N+](=O)[O-])c2)s1 [compound 5210298] | -36.0 | -67.3 | -4.4
